≈ marks a conversion by molar mass, not a printed value. Read-outs that look alike come from different tables or passages of the source.
How the values were obtained:
Assay in all cases: Agar incorporation test, MIC
Assay type in all cases: cell-based
[1] = system: Staphylococcus hominis DSM 20328; conditions: DSM20328, Example 3, according to Example 2, read-out: MIC SH = Staphylococcus hominis DSM 20328
Description: (§1) An agar incorporation test is carried out to determine the MIC (Minimum Inhibitory Concentration [ppm]) of the compound of formula (101): […]
(§2) The test substances are dissolved in Ethanol, and a dilution series of the compound of the formula […] in agar are prepared.
(§3) Anaerobic bacteria and dermatophytes are cultivated on agar-plates, and washes off with Mueller-Hinton bouillon. Aerobic bacteria are cultivated in Mueller-Hinton bouillon overnight. The test germ suspension are diluted with Mueller-Hinton bouillon to a density of McFarland standard 0.5.
(§4) 10 μl of each germ suspension is dropped onto the agar plates containing the test substance, and the plates are then incubated at 36° C. for 2 to 3 days. (Aerobic bacteria are incubated at 36° C. for 48 hours, anaerobic bacteria are incubated at 30° C. for 72 hours). As controls, the bacterial suspensions are applied to agar plates without test substances. In order to exclude the solvent ethanol having an influence on the growth properties, the bacterial suspensions are applied to agar plates containing ethanol, but without test substance.
(§5) After the plates have been incubated, the growth of the bacteria on the test-substance-containing plates is compared with that of the control plates.

[2] = system: Candida albicans ATCC 10231; conditions: ATCC10231, Example 3, according to Example 2, read-out: MIC CA = Candida albicans ATCC 10231
Description: as §1, §2, §3, §4, §5

[3] = system: Aspergillus niger ATCC 6275; conditions: ATCC6275, Example 3, according to Example 2
Description: as §1, §2, §3, §4, §5

[4] = system: Escherichia coli NCTC 8196; conditions: NCTC8196, Example 3, according to Example 2, read-out: MIC EC = Escherichia coli NCTC 8196
Description: as §1, §2, §3, §4, §5

[5] = system: Staphylococcus aureus ATCC 6538
Description: as §1, §2, §3, §4, §5

[6] = system: Corynebacterium xerosis ATCC 373; conditions: ATCC373, Table 1, 36° C., read-out: MIC (Minimum Inhibitory Concentration) Corynebacterium xerosis ATCC 373
Description: as §1, §2, §3, §4, §5

[7] = system: Staphylococcus hominis DSM 20330; conditions: DSM20330, Table 1, 36° C., read-out: MIC (Minimum Inhibitory Concentration) Staphylococcus hominis DSM 20330
Description: as §1, §2, §3, §4, §5

[8] = ATCC6538, Example 3, according to Example 2, read-out: MIC SA = Staphylococcus aureus ATCC 6538

Row | MIC [1] [mg/L] | MIC [2] [mg/L] | MIC [3] [mg/L] | MIC [4] [mg/L] | MIC [5, 8] [mg/L] | SMILES | MIC [6] [mg/L] | MIC ([5]; ATCC6538, read-out: MIC (Minimum Inhibitory Concentration) Staphylococcus aureus ATCC 6538) [mg/L] | MIC [7] [mg/L]
1 | 2 (≈ 4.76 µM) |  |  |  |  | Oc1c(-c2ccc(F)cc2)nsc1Sc1snc(-c2ccc(F)cc2)c1O [(109)] |  |  | 
2 |  | 100 (≈ 315 µM) |  |  |  | O=C(c1ccc(F)cc1)c1snc(-c2ccc(F)cc2)c1O [(108)] |  |  | 
3 |  | 250 (≈ 1410 µM) | 100 (≈ 564 µM) | 250 (≈ 1410 µM) | 50 (≈ 282 µM) | Oc1csnc1-c1ccccc1 [(103)] |  |  | 
4 | 5 (≈ 13 µM) |  |  |  | 5 (≈ 13 µM) | Oc1c(-c2ccccc2)nsc1Sc1snc(-c2ccccc2)c1O [(107)] |  |  | 
5 | 500 (≈ 2440 µM) | 500 (≈ 2440 µM) | 100 (≈ 487 µM) | 500 (≈ 2440 µM) | 500 (≈ 2440 µM) | CCc1snc(-c2ccccc2)c1O [(106)] |  |  | 
6 |  |  |  |  |  | Oc1c(-c2ccccc2)nsc1-c1ccccc1 [(101), 3,5-diphenyl-4-hydroxyisothiazole] | 5 (≈ 19.7 µM) | 5 (≈ 19.7 µM) | 50 (≈ 197 µM)
7 |  | 50 (≈ 261 µM) | 10 (≈ 52.3 µM) | 50 (≈ 261 µM) | 50 (≈ 261 µM) | Cc1snc(-c2ccccc2)c1O [(105)] |  |  | 
8 |  | 500 (≈ 2610 µM) | 500 (≈ 2610 µM) | 250 (≈ 1310 µM) | 50 (≈ 261 µM) | Oc1csnc1Cc1ccccc1 [(104)] |  |  | 

Row | SMILES | MIC [1] [mg/L] | MIC [2] [mg/L] | MIC [3] [mg/L] | MIC [4] [mg/L] | MIC [5, 8] [mg/L] | MIC [6] [mg/L] | MIC ([5]; ATCC6538, read-out: MIC (Minimum Inhibitory Concentration) Staphylococcus aureus ATCC 6538) [mg/L] | MIC [7] [mg/L]
9 | Oc1c(-c2ccccc2)nsc1-c1ccccc1 [(102)] | 50 (≈ 197 µM) | 50 (≈ 197 µM) | 13 (≈ 51.3 µM) | 5 (≈ 19.7 µM) | 10 (≈ 39.5 µM) |  |  | 
